Results published in patent US10703756B2, “Pyrrolo[2,3-D]pyrimidinyl, pyrrolo[2,3-B]pyrazinyl, pyrrolo[2,3-B]pyridinyl acrylamides and epoxides thereof” (Pfizer Inc., priority 2015, dated 2020).

Tests used:
JAK3 enzyme [1] = biological target: T1, JAK3 enzyme (Homo sapiens, UniProt P52333); test: JAK Caliper Enzyme Assay at 4 μM ATP; format: biochemical
T1 sequence (P52333 1-1124): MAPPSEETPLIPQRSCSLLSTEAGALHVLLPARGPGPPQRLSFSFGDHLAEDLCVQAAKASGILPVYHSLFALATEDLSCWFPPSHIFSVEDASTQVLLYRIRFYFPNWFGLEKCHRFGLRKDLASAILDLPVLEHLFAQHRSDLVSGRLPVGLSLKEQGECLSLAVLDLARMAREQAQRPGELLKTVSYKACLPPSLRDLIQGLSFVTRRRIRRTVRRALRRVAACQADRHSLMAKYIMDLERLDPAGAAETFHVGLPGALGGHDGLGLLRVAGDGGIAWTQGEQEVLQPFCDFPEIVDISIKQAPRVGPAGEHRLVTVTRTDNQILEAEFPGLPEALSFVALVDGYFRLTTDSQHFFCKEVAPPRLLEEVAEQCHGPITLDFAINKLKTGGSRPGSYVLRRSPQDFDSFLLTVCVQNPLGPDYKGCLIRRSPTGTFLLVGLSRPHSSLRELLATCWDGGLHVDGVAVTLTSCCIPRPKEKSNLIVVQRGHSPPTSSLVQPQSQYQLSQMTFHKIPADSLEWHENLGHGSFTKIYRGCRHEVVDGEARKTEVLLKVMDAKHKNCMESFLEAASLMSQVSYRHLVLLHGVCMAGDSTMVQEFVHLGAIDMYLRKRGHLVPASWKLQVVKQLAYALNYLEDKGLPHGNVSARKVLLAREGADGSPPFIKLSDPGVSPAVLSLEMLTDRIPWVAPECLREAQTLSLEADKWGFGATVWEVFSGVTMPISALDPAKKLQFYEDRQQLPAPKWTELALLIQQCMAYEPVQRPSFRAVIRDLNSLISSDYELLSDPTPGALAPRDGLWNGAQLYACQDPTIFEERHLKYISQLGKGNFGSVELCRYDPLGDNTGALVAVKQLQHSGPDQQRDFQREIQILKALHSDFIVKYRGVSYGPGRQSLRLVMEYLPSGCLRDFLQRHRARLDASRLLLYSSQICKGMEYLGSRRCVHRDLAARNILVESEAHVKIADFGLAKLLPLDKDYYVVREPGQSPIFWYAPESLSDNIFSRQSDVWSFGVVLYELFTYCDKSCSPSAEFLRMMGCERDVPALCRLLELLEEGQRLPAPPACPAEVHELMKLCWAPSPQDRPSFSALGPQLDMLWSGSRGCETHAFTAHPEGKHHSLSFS
In short: (§1)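 Read-out: microfluidic mobility-shift separation quantifying substrate peptide versus phosphopeptide. Compounds were tested as 11-point half-log dilutions, top 600 μM in DMSO before transfer. Enzyme level and reaction time were tuned for each prep so conversion stayed at 20%-30%.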

[2] = system: IL-15 induced P-STAT5 in human PBMC; test: PBMC IL-15 Induced P-STAT5; format: cell-based; conditions: human PBMC, IL-15 final 41 ng/mL; read-out: PBMC IL15_pSTAT5_IC50
In short: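 Flow cytometry gated on total lymphocytes measured STAT5 staining (Alexa Fluor 647 antibody, overnight, 4 °C) in fixed, methanol-permeabilised human PBMC. Cells had received compound for 15 min at 37 °C (0.2% DMSO final), followed by 41 ng/mL final human IL-15 for 15 min.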

JAK3 enzyme [3] = biological target: T1, JAK3 enzyme; test: JAK Caliper Enzyme Assay at 1 mM ATP; format: biochemical
In short: as §1

[4] = system: IL-15 induced STAT5 phosphorylation in human whole blood lymphocytes; test: HWB IL-15 Induced STAT5 Phosphorylation Assay; format: cell-based; conditions: Lymphocyte, IL-15 final 50 ng/ml, read-out: HWB_IL15 pSTAT5 IC50
Procedure: HWB IL-15 Induced STAT5 Phosphorylation Assay
After serial dilution of the test compounds 1:2 in DMSO at desired concentration (500× of final), the compounds were further diluted in PBS (by adding 4 μL compound/DMSO in 96 μL PBS, [DMSO]=4%, 20× final). To 96-well polypropylene plates were added 90 μl HWB (heparin treated Human Whole Blood)/well, followed by 5 μl/well 4% DMSO in D-PBS or various concentrations of 20× inhibitor in 4% DMSO in D-PBS (w/o Ca^+2 or Mg^+2) to give 1× in 0.2% DMSO. After mixing and incubating for 45 minutes at 37° C., 5 μl D-PBS (unstimulated control) or 20× stocks of 5 μl human IL-15 (final concentration is 50 ng/ml) were added, and mixed three times. After incubating 15 minutes at 37° C., 1× Lyse/Fix Buffer (BD Phosflow 5× Lyse/Fix Buffer) was added to all wells at 1000 μl/well, then incubated for 20 minutes at 37° C. and spun 5 mins at 1200 rpm. After washing in 1000 μl FACS buffer 1× and spinning for 5 mins at 1200 rpm, 400 μl ice cold Perm Buffer III were added to each well. After mixing gently (1-2×) and incubating on ice for 30 minutes, spinning for 5 mins at 1200 rpm without interruption, and washing 1× in cold […] FACS buffer (D-PBS containing 0.1% BSA and 0.1% sodium azide) 250 μl/well of the desired AlexaFluor647-conjugated anti-phospho STATS antibody at 1:125 dilution in FACS buffer was added. Following incubating at 4° C. over night, all the samples were transferred to 96-well polypropylene U-bottom plate, and checked by flow cytometry gated on total lymphocytes.

C=CC(=O)N1CCN(c2cnc3[nH]cc(C(=O)N[C@H](CC)CC#N)c3n2)CC1(C)C [Example 318, 2-(4-acryloyl-3,3-dimethylpiperazin-1-yl)-N-[(2R)-1-cyanobutan-2-yl]-5H-pyrrolo[2,3-b]pyrazine-7-carboxamide] showed an IC50 (JAK3 enzyme [1]) of 0.535 nM, an IC50 [2] of 214 nM and an IC50 (JAK3 enzyme [3]) of 59 nM. For the same compound, the IC50 [4] was 1760 nM.

In the case of C=CC(=O)N1CC[C@@H](Nc2cnc3[nH]cc(C(=O)N[C@@H](C)COC)c3n2)[C@@H](OC)C1 [Example 312, 2-{[(3S,4R)-1-acryloyl-3-methoxypiperidin-4-yl]amino}-N-[(2S)-1-methoxypropan-2-yl]-5H-pyrrolo[2,3-b]pyrazine-7-carboxamide], the IC50 (JAK3 enzyme [1]) is reported as 1.05 nM, the IC50 [2] is reported as 310 nM and the IC50 (JAK3 enzyme [3]) is reported as 56 nM. The IC50 [4] was 704 nM.

C=CC(=O)N1CC[C@@H](Nc2cnc3[nH]cc(C(=O)NCC4CCCC4)c3n2)[C@@H](OC)C1 [Example 313, 2-{[(3S,4R)-1-acryloyl-3-methoxypiperidin-4-yl]amino}-N-(cyclopentylmethyl)-5H-pyrrolo[2,3-b]pyrazine-7-carboxamide] was tested, and the IC50 (JAK3 enzyme [1]) was 0.736 nM, the IC50 [2] was 243 nM and the IC50 (JAK3 enzyme [3]) was 46 nM. The IC50 [4] was 986 nM.

With C=CC(=O)N1CCN(c2cnc3[nH]cc(C(=O)NC4CCCOC4)c3n2)CC1(C)C (racemic) [Example 149, Racemic-2-(4-acryloyl-3,3-dimethylpiperazin-1-yl)-N-(tetrahydro-2H-pyran-3-yl)-5H-pyrrolo[2,3-b]pyrazine-7-carboxamide] the IC50 (JAK3 enzyme [1]) was 0.565 nM, the IC50 [2] was 163 nM and the IC50 (JAK3 enzyme [3]) was 134 nM. For the same compound, the IC50 [4] was 4240 nM.

C=CC(=O)N1CCC(Nc2cnc3[nH]cc(C(=O)NCc4cc(C(C)C)no4)c3n2)CC1 [Example 175, 2-[(1-acryloylpiperidin-4-yl)amino]-N-{[3-(propan-2-yl)-1,2-oxazol-5-yl]methyl}-5H-pyrrolo[2,3-b]pyrazine-7-carboxamide] showed an IC50 (JAK3 enzyme [1]) of 0.426 nM, an IC50 [2] of 77.3 nM and an IC50 (JAK3 enzyme [3]) of 8 nM. The IC50 [4] was 1320 nM.

In the case of C=CC(=O)N1CCN(c2cnc3[nH]cc(C(=O)NCC(C)CC(F)(F)F)c3n2)CC1 (racemic) [Example 279, Racemic-2-(4-acryloylpiperazin-1-yl)-N-(4,4,4-trifluoro-2-methylbutyl)-5H-pyrrolo[2,3-b]pyrazine-7-carboxamide], the IC50 (JAK3 enzyme [1]) is reported as 0.343 nM, the IC50 [2] is reported as 107 nM and the IC50 (JAK3 enzyme [3]) is reported as 31 nM. It also gave an IC50 [4] of 765 nM.

C=CC(=O)N1CCN(c2cnc3[nH]cc(C(=O)NCC(C)(C)C)c3n2)CC1 [Example 304, 2-(4-acryloylpiperazin-1-yl)-N-(2,2-dimethylpropyl)-5H-pyrrolo[2,3-b]pyrazine-7-carboxamide] was tested, and the IC50 (JAK3 enzyme [1]) was 0.194 nM, the IC50 [2] was 96.8 nM and the IC50 (JAK3 enzyme [3]) was 29 nM. It also gave an IC50 [4] of 524 nM.

In the case of C=CC(=O)N1CC[C@@H](Nc2cnc3[nH]cc(C(=O)NCCC(F)(F)F)c3n2)[C@@H](OC)C1 [Example 278, 2-{[(3S,4R)-1-acryloyl-3-methoxypiperidin-4-yl]amino}-N-(3,3,3-trifluoropropyl)-5H-pyrrolo[2,3-b]pyrazine-7-carboxamide], the IC50 (JAK3 enzyme [1]) is reported as 1.23 nM, the IC50 [2] is reported as 272 nM and the IC50 (JAK3 enzyme [3]) is reported as 70 nM. The IC50 [4] was 2460 nM.

C=CC(=O)N1CC[C@@H](Nc2cnc3[nH]cc(C(=O)NCC(C)CC(F)(F)F)c3n2)[C@@H](OC)C1 (mixture of isomers) [Example 269, Racemic-2-{[(3S,4R)-1-acryloyl-3-methoxypiperidin-4-yl]amino}-N-(4,4,4-trifluoro-2-methylbutyl)-5H-pyrrolo[2,3-b]pyrazine-7-carboxamide] showed an IC50 (JAK3 enzyme [1]) of 0.888 nM, an IC50 [2] of 220 nM and an IC50 (JAK3 enzyme [3]) of 82 nM. The IC50 [4] was 1390 nM.

In the case of C=CC(=O)N1CCC(C)(Nc2cnc3[nH]cc(C(=O)NCC(C)C)c3n2)CC1 [Example 301, 2-[(1-acryloyl-4-methylpiperidin-4-yl)amino]-N-(2-methylpropyl)-5H-pyrrolo[2,3-b]pyrazine-7-carboxamide], the IC50 (JAK3 enzyme [1]) is reported as 0.431 nM, the IC50 [2] is reported as 387 nM and the IC50 (JAK3 enzyme [3]) is reported as 44 nM. It also gave an IC50 [4] of 3030 nM.
